# Columns and labels:
# Format in all cases: in vivo
# [1] = system: adult female mosquitoes; assay: Bottle assay based on CDC bottle assay; conditions: Table B15; rates not given
# Experimental: Based on the “CDC bottle assay” (described at http://www.cdc.gov/malaria/resources/pdf/fsp/ir_manual/ir_cdc_bioassay_en.pdf) 1 ml of ethanol containing a test compound at a defined concentration was added to a 250 ml glass bottle and the bottles were placed on a rolling table to coat the inner surfaces as the solvent evaporated. Once dry, twenty five non-blood fed adult female mosquitoes of the appropriate species and strains (each three day old) were aspirated from the stock culture and gently blown into the exposure bottles. The lid of the bottle was replaced and the bottle placed upright out of direct sun light under standard culture conditions, nominally 28° C. and 60-80% relative humidity.
# A stopwatch was started, and the assessment of the knock-down were made after 15 mins and 60 minutes. A mosquito was said to be knocked down if it was unable to stand, following the CDC definition. The bottles were replaced in an upright position when not being assessed.
# After one hour the mosquitoes were carefully removed from the bottle with an aspirator and placed in a recovery cup. The mosquitoes were supplied with a 10% sucrose solution on a cotton wool bung, and stored under culture conditions. Assessments of the mortality were made after 24 hours and 48 hours (B15).
# Each treatment was replicated a minimum of four times, with the mean knockdown or mortality recorded. In each study, a set of bottles was infested with a known insecticide susceptible strain of mosquitoes from the same genera as the resistant strains.
# [2] = system: female mosquitoes; assay: Tunnel study based on WHOPES tunnel tests with Hemotek membrane feeding device
# Experimental: Based on the “WHOPES tunnel tests” (described at http://apps.who.int/iris/bitstream/10665/80270/1/9789241505277_eng.pdf), except that live guniea pig baits were replaced with a Hemotek membrane feeding device, filled with blood and kept constant at 37° C. to mimic a human host. All tests were done under standardised laboratory controlled conditions (27° C.+2° C. under subdued light). The tunnel apparatus was a 60×30×30 cm glass case open at each end and the floor was lined with wet blue roll in order to maintain humidity. A 30×30×30 cm cage, covered in untreated netting, was placed at the release end. The test nets were cut to 25×25 cm squares and fitted into cardboard frames that allow a 20×20 cm area to be exposed. Nine holes, 1 cm in diameter, were made in the netting in the pattern specified in the WHOPES test. The frames were then fitted into the tunnel one third of the way down its length. A Hemotek device, filled with blood and kept constant at 37° C. to mimic a human host, was placed in the smaller area of the glass tunnel behind the test netting, and the end of the tunnel closed with a netting screen. A human sat at the Hemotek end of the tunnels for the duration of the test. At the start of the test (13.30-14.00), 100 female mosquitoes (non-blood fed, aged 5-8 days) were introduced into the cage. Mosquitoes are free to fly in the tunnel but have to make contact with the piece of netting and locate the holes in it before passing through to reach the bait. After 7 hours (20.30-21.00) the mosquitoes were counted in each section of the tunnel. The number of mosquitoes knocked down and blood fed were recorded. Blood-feeding inhibition was assessed by comparing the proportion of blood-fed females (alive or dead) in treated and control tests. Four tunnels were run simultaneously each day, with one control containing untreated netting included with all runs. Three replicates were carried out per treatment.
# (§1) In case of multiple tests, the mean value is reported.
# [3] = system: Anopheles stephensi; assay: 6 well plate test, knockdown after 1 hour and mortality after 24 and 48 hours; design: KD: unit not given here; conditions: for 24 hr mort / 48 hr mort / KD: Table B4; for KD: after 1 hour
# Experimental: The individual wells of six (6) well tissue culture plates were treated with […] of an ethanol solution containing a test compound at a defined concentration. Once the deposits were dry, ten non-blood fed adult female Anopheles stephensi (between two to five day old) were added to each well, and sustained with a 10% sucrose solution in a cotton wool plug. Assessment of the knockdown after 1 hour (Tables B1-B10), and mortality after 24 and 48 hours (Tables B1-B4) was carried out.
# as §1
# [4] = system: Aedes aegypti; assay: 12 well plate knockdown test; conditions: 1 h, read-out: Aedes aegypti 1 hour % KD; for pest or weed control at 0.2 ppm: Rate 0.2 PPM; for pest or weed control at 2 ppm: Rate 2 PPM; for pest or weed control at 20 ppm: Rate 20 PPM; for pest or weed control at 200 ppm: Rate 200 PPM
# Experimental: (§2) The individual wells of a twelve (12) well tissue culture plates were treated with 100 μl of an ethanol solution containing a test compound at a defined concentration. Once the deposits were dry, five non-blood fed adult female Aedes aegypti or Anopheles stephensi (between two to five day old) were added to each well, and sustained with a 10% sucrose solution in a cotton wool plug. Assessment of the knockdown after 1 hour was carried out. Where multiple replicates of a treatment have been undertaken, the mean of those replicates is reported.
# [5] = system: Anopheles stephensi; assay: 12 well plate knockdown test; conditions: 1 h, read-out: Anopheles stephensi 1 hour % KD; for pest or weed control at 0.2 ppm: Rate 0.2 PPM; for pest or weed control at 2 ppm: Rate 2 PPM; for pest or weed control at 20 ppm: Rate 20 PPM; for pest or weed control at 200 ppm: Rate 200 PPM
# Experimental: as §2
smiles,measurement,setting,value
N#CCNC(=O)c1cnccc1C(F)(F)F [Flonicamid],24 hour % mort,[1],0%
same,48 hour % mort,[1],0%
same,% 1 hour KD,[1],0%
COC(=O)N(C(=O)N1CO[C@@]2(C(=O)OC)Cc3cc(Cl)ccc3C2=N1)c1ccc(OC(F)(F)F)cc1 [Indoxacarb],% 24 hour mortality,"[2]; Table B14, 20 mg/m2",7.6%
same,% Blood fed,"[2]; Table B14, 20 mg/m2",31.4%
same,24 hr mort,[3]; 12.5 ppm alone,0.0
same,48 hr mort,[3]; 12.5 ppm alone,0.0
same,KD,[3]; 12.5 ppm alone,0.0
same,24 hr mort,[3]; 25 ppm alone,0.0
same,48 hr mort,[3]; 25 ppm alone,0.0
same,KD,[3]; 25 ppm alone,0.0
same,24 hr mort,[3]; 50 ppm alone,0.0
same,48 hr mort,[3]; 50 ppm alone,0.0
same,KD,[3]; 50 ppm alone,0.0
same,24 hr mort,[3]; 100 ppm alone,0.0
same,48 hr mort,[3]; 100 ppm alone,0.0
same,KD,[3]; 100 ppm alone,0.0
same,"knockdown after 1 hour, Alone","[3]; Table B7, 25 ppm",0
same,"knockdown after 1 hour, Alone","[3]; Table B7, 50 ppm",0
same,"knockdown after 1 hour, Alone","[3]; Table B7, 100 ppm",0
same,"knockdown after 1 hour, Alone","[3]; Table B7, 200 ppm",0
CN(OC(=O)OCc1ccccc1)C(=O)c1cnccc1C(F)(F)F [I.8],pest or weed control at 0.2 ppm,[4],100%
same,pest or weed control at 2 ppm,[4],100%
same,pest or weed control at 20 ppm,[4],100%
same,pest or weed control at 200 ppm,[4],100%
same,pest or weed control at 0.2 ppm,[5],60%
same,pest or weed control at 2 ppm,[5],100%
same,pest or weed control at 20 ppm,[5],100%
same,pest or weed control at 200 ppm,[5],100%
CN(C)C(=O)c1cnccc1C(F)(F)F [I.4],pest or weed control at 0.2 ppm,[4],100%
same,pest or weed control at 2 ppm,[4],100%
same,pest or weed control at 20 ppm,[4],100%
same,pest or weed control at 200 ppm,[4],100%
same,pest or weed control at 0.2 ppm,[5],40%
same,pest or weed control at 2 ppm,[5],100%
same,pest or weed control at 20 ppm,[5],100%
same,pest or weed control at 200 ppm,[5],100%
CC(NC(=O)c1cnccc1C(F)(F)F)C(N)=S (stereo not drawn) [I.26],pest or weed control at 0.2 ppm,[4],0%
same,pest or weed control at 2 ppm,[4],100%
same,pest or weed control at 20 ppm,[4],100%
same,pest or weed control at 200 ppm,[4],100%
same,pest or weed control at 0.2 ppm,[5],0%
same,pest or weed control at 2 ppm,[5],0%
same,pest or weed control at 20 ppm,[5],100%
same,pest or weed control at 200 ppm,[5],100%
CSCC/C(N)=N\C(=O)c1cnccc1C(F)(F)F [I.21],pest or weed control at 0.2 ppm,[4],0%
same,pest or weed control at 2 ppm,[4],0%
same,pest or weed control at 20 ppm,[4],0%
same,pest or weed control at 200 ppm,[4],100%
same,pest or weed control at 0.2 ppm,[5],20%
same,pest or weed control at 2 ppm,[5],60%
same,pest or weed control at 20 ppm,[5],100%
same,pest or weed control at 200 ppm,[5],100%
N/C(=N/C(=O)c1cnccc1C(F)(F)F)c1ncccn1 [I.14],pest or weed control at 0.2 ppm,[4],0%
same,pest or weed control at 2 ppm,[4],100%
same,pest or weed control at 20 ppm,[4],100%
same,pest or weed control at 200 ppm,[4],100%
same,pest or weed control at 0.2 ppm,[5],40%
same,pest or weed control at 2 ppm,[5],40%
same,pest or weed control at 20 ppm,[5],100%
same,pest or weed control at 200 ppm,[5],100%
CC(C)n1nc(-c2cnccc2C(F)(F)F)oc1=O [I.7],pest or weed control at 0.2 ppm,[4],100%
same,pest or weed control at 2 ppm,[4],100%
same,pest or weed control at 20 ppm,[4],100%
same,pest or weed control at 200 ppm,[4],100%
same,pest or weed control at 0.2 ppm,[5],0%
same,pest or weed control at 2 ppm,[5],0%
same,pest or weed control at 20 ppm,[5],0%
same,pest or weed control at 200 ppm,[5],20%
FC(F)(F)c1ccncc1C1=NCCN1 [I.20],pest or weed control at 0.2 ppm,[4],0%
same,pest or weed control at 2 ppm,[4],40%
same,pest or weed control at 20 ppm,[4],100%
same,pest or weed control at 200 ppm,[4],100%
same,pest or weed control at 0.2 ppm,[5],20%
same,pest or weed control at 2 ppm,[5],60%
same,pest or weed control at 20 ppm,[5],100%
same,pest or weed control at 200 ppm,[5],100%
"CC1(C)[C@H](C(=O)O[C@H](C#N)c2cccc(Oc3ccccc3)c2)[C@@H]1C=C(Br)Br [Deltamethrin, reference compound]",mortality at 5 mg/m2,"[2]; 24 h, Table B13, 5 mg/m2",13%
same,% 1 hour KD,"[2]; Table B12, 5 mg/m2",0%
same,% Blood fed,"[2]; Table B12, 5 mg/m2",0%
same,% Through net,"[2]; Table B12, 5 mg/m2",0.93%
same,% Blood fed,"[2]; Table B13, 5 mg/m2",52.77%
same,% Through net,"[2]; Table B13, 5 mg/m2",67.6%
same,"knockdown after 1 hour, Alone","[3]; Table B6, 0.03125 ppm",20
same,"knockdown after 1 hour, Alone","[3]; Table B6, 0.0625 ppm",40
same,"knockdown after 1 hour, Alone","[3]; Table B6, 0.125 ppm",40
same,"knockdown after 1 hour, Alone","[3]; Table B6, 0.25 ppm",100
same,"knockdown after 1 hour, Alone","[3]; Table B6, 0.5 ppm",100
same,"knockdown after 1 hour, Alone","[3]; Table B6, 1 ppm",100
CCNNC(=O)c1cnccc1C(F)(F)F [I.27],pest or weed control at 0.2 ppm,[4],0%
same,pest or weed control at 2 ppm,[4],100%
same,pest or weed control at 20 ppm,[4],100%
same,pest or weed control at 200 ppm,[4],100%
same,pest or weed control at 0.2 ppm,[5],0%
same,pest or weed control at 2 ppm,[5],0%
same,pest or weed control at 20 ppm,[5],100%
same,pest or weed control at 200 ppm,[5],100%
NC(=S)c1cnccc1C(F)(F)F [I.22],pest or weed control at 0.2 ppm,[4],100%
same,pest or weed control at 2 ppm,[4],100%
same,pest or weed control at 20 ppm,[4],100%
same,pest or weed control at 200 ppm,[4],100%
same,pest or weed control at 0.2 ppm,[5],40%
same,pest or weed control at 2 ppm,[5],60%
same,pest or weed control at 20 ppm,[5],60%
same,pest or weed control at 200 ppm,[5],100%
CN(OC(=O)Oc1ccccc1)C(=O)c1cnccc1C(F)(F)F [I.28],pest or weed control at 0.2 ppm,[4],20%
same,pest or weed control at 2 ppm,[4],40%
same,pest or weed control at 20 ppm,[4],60%
same,pest or weed control at 200 ppm,[4],100%
same,pest or weed control at 0.2 ppm,[5],0%
same,pest or weed control at 2 ppm,[5],0%
same,pest or weed control at 20 ppm,[5],40%
same,pest or weed control at 200 ppm,[5],100%
CO/N=C(\C)CNC(=O)c1cnccc1C(F)(F)F [I.18],pest or weed control at 0.2 ppm,[4],40%
same,pest or weed control at 2 ppm,[4],100%
same,pest or weed control at 20 ppm,[4],100%
same,pest or weed control at 200 ppm,[4],100%
same,pest or weed control at 0.2 ppm,[5],0%
same,pest or weed control at 2 ppm,[5],0%
same,pest or weed control at 20 ppm,[5],0%
same,pest or weed control at 200 ppm,[5],40%
CS(=O)(=O)NC(=O)c1cnccc1C(F)(F)F [I.24],pest or weed control at 0.2 ppm,[4],100%
same,pest or weed control at 2 ppm,[4],100%
same,pest or weed control at 20 ppm,[4],100%
same,pest or weed control at 200 ppm,[4],100%
same,pest or weed control at 0.2 ppm,[5],40%
same,pest or weed control at 2 ppm,[5],60%
same,pest or weed control at 20 ppm,[5],100%
same,pest or weed control at 200 ppm,[5],100%

# From US20170094972A1, “Compounds and Compositions Having Knock-Down Activity Against Insect Pests” (priority 2015, published 2017)
